The source of these data is US7322369B2, “Methods of detaching microorganisms from, or of inhibiting microbial attachment to, animal or poultry carcasses or seafood or parts thereof” (priority 2000, dated 2008).

The subject of one assay is Salmonella. Nature of the assay: Detachment of Salmonella in sandwich immunoassay (biosensor). The format is binding. The conditions noted are these: sequential .75M Arginine, 6M Guanidine, 0.25 NaCl + 0.05% Tween 80.
For another assay, the system named is E. coli 0157. Nature of the assay: Detachment of E. coli O157 in sandwich immunoassay (biosensor). The format is binding. The conditions noted are these: sequential .75M Arginine, then 0.25 NaCl + 0.05%Tween 80.
For assay [1], the system named is bacteria bound to collagen. Nature of the assay: Biosensor detachment of bacteria bound to collagen. The format is binding. The note with it: 0.5M arginine, phosphoric acid 0.1M, HCl 0.1M, citric acid 0.5M. The text has this:
Use of Guanidine, creatine and arginine: Guanidine is a strong cytotoxic compound and can not be used in large quantities in food plants or slaughter operations. […] However, its use may be limited in the laboratory for analysis of food tissues. Therefore, a substitute for guanidine for detachment of pathogens from food carcasses was investigated. Guanidine is structurally related to creatine and arginine with a guanidyl moeity in their molecules. […] It has been shown that creatine hydrolyzes upon dissolution in water or buffer converting it to creatinine (methylglycocyamidine), a cyclic product and an end product of creatine metabolism. […] Arginine is an essential amino acid for children but not for adults. It is non-essential for adults because it can be derived from proteins in the diet. It is also inexpensive and can be obtained in bulk. Phosphoric acid (0.1M), HCl (0.1M) and citric acid (0.5M) had no effect in the detachment studies.

The subject of a further assay is bacteria. Nature of the assay: Bactericidal effect. The format is cell-based. The note with it: pH 2.5. From the text: The present invention also includes a method of quantifying microorganisms (e.g., bacteria) on carcasses or parts thereof. To enhance detachment of microorganisms (e.g., bacteria) for sampling: Treatment of animal and poultry carcass or seafood with polysulfated polysaccharides or carboxymethyl cellulose followed by guanidine or arginine or phosphate buffer and NaCl/non-ionic surfactant may enhance detachment of microorganisms for sampling and analytical purposes. […] At pH 4.8, live bacteria may be recovered with guanidine-HCl. At pH 2.5, guanidine-HCl is bactericidal. Therefore, its use may be limited in the laboratory (FIG. 4). For “in situ” sampling in the slaughter plants, arginine, or phosphate buffer and TWEEN-80/NaCl may be used in place of guanidine (FIG. 5).
Collagen is the major component (40%) of the connective tissues. Results from the scanning electron microscopy studies illustrated the abundance of collagen strands in the fascia and connective tissues (Medina et al. (1999), Scanning Electron Microscopy Studies on Attachment of Escherichia Coli O157:H7 to Bovine Tissues, Presented at 1999 IFT Annual Meeting, Chicago, Ill., July 24-28; Poster at Gordon Research Conference on Molecular Mechanisms of Microbial Adhesions (Aug. 1-6, 1999) and at the 18th Annual Meeting of the Philippine-American Academy of Science and Engineering, Jekyll Is., Ga., Aug. 13-15, 1999). […]

For another assay, the system named is E. coli O157:H7 surface. Nature of the assay: Biosensor inhibition of collagen binding to E. coli O157:H7 surface. The conditions noted are these: 12 trials. The text has this:
(§1) Biosensor Studies: A novel approach to study bacterial attachment to animal carcass was designed. The studies led to a development of a biosensor method to study binding of extracellular matrix components to the surface of immobilized bacteria. This novel approach utilized immobilized whole E. coli cells. This approach allowed the study of the binding of the lipopolysaccharides and other bacterial surface epitopes without altering their chemical structure. Conditions for immobilization and determination of the bacterial cell surface binding properties were initially assessed with anti-E. coli 0157:H7 antibody (Medina et al. (1997), Real-time analysis of antibody binding interactions with immobilized E. coli O157:H7, Biotechnology Techniques, Vol. 11 (3): 173-176). The bacterial surface was bound with an antibody produced against a heat-killed bacteria. […] The binding interactions of polysulfated polysaccharides such as heparan sulfate and iota, lambda and kappa carrageenans were determined with the extracellular matrix proteins (ECM) and the immobilized E. coli O157:H7 cells. […]

Assay [2] concerns Salmonella typhimurium Sensor Surface. Nature of the assay: Biosensor inhibition of collagen binding to Salmonella typhimurium sensor surface. The note with it: 12 trials.
Another assay deals with E. coli and Salmonella. Nature of the assay: Biosensor kinetics of bacteria-collagen binding (E. coli and Salmonella pooled).
Source text: as §1

Where a name gives a salt, the structure may show the parent alone.

Consider `N=C(N)NCCC[C@H](N)C(=O)O` [Arginine, arginine], for which the “Surface RU removed from the sensor surface” value (“Surface RU removed” for short) with Salmonella (CFU 0) was found to be 75 RU; in the assay with Salmonella (CFU 10E + 4), 20 RU; in the assay on Salmonella (CFU 10E + 5), 32 RU; in the assay on Salmonella (CFU 10E + 6), 48 RU; with Salmonella (CFU 10E + 7), 96 RU; in the assay on E. coli 0157 (CFU 0), 99 RU. In addition, the “Surface RU removed” value in the assay on E. coli 0157 (CFU 10E + 3) amounted to 237 RU; in the assay on E. coli 0157 (CFU 10E + 4) it was 249 RU; in the assay on E. coli 0157 (CFU 10E + 5), 275 RU; in the assay on E. coli 0157 (CFU 10E + 6), 299 RU; in the assay on E. coli 0157 (CFU 10E + 7) it was 405 RU. In addition, the “detachment of bacteria bound to collagen” value in assay [1] was “equally good or better than 1 M guanidine-HCl”.

In the case of `N=C(N)N` [Guanidine, guanidine], the “Surface RU removed” value in the assay with Salmonella (CFU 0) is listed as −137 RU; in the assay with Salmonella (CFU 10E + 4), −100 RU; in the assay with Salmonella (CFU 10E + 5), −54 RU; in the assay on Salmonella (CFU 10E + 6), −22 RU; with Salmonella (CFU 10E + 7), −32 RU. Moreover, in assay [1], the “detachment of bacteria bound to collagen” value is reported as “very effective detachment agent”. The “bactericidal effect” value with bacteria was “bactericidal”.

With `Cl` [HCl], in assay [1], the “detachment of bacteria bound to collagen” value was “no effect”.

For the compound `O=P(O)(O)O` [Phosphoric acid], the “detachment of bacteria bound to collagen” value in assay [1] is “no effect”.

In the case of `O=C(O)CC(O)(CC(=O)O)C(=O)O` [citric acid], in assay [1], the “detachment of bacteria bound to collagen” value is listed as “no effect”.

On to `CN(CC(=O)O)C(=N)N` [creatine], for which the “detachment of bacteria bound to collagen” value in assay [1] is recorded as “ineffective”.

With collagen, the “affinity constant of collagen to E. coli binding, mean” value in the assay with E. coli O157:H7 surface turned out to be 3e+08 M⁻¹. Further, in assay [2], the “affinity constant of collagen to Salmonella binding, mean” value turned out to be 2.75e+07 M⁻¹. In the assay with E. coli and Salmonella, the “dissociation constants of bacteria and collagen binding” value was 10^−8 to 10^−9 KDMole. Also, the “affinity constants of collagen to E. coli and Salmonella binding, range” value with E. coli and Salmonella (12 trials (each)) was 10^7 to 10^8 M^−1.
